We go through twelve compounds from US20260317319A1, “NOVEL ERGOLINES AND METHODS OF TREATING MOOD DISORDERS” (Gilgamesh Pharma Inc., priority 2023, published 2026).

Broadly, the EC50 is the concentration at which the effect is half-maximal. Low values mean a more potent agent, high ones a less potent agent. In general, Ki refers to a dissociation constant, usually derived from enzyme kinetics or from competition with a known ligand. Low values mean a stronger hold on the target, high ones a looser hold on the target.

Some results are limits rather than exact numbers.

Test [1] concerns C57BL/6 mice. Kind of test: Automated mouse head twitch response (HTR) assay (video tracking). Type of test: in vivo. The following applies: sc; for # HTR/20 min at Most Efficacious Dose: 20 min recording, at each compound's most efficacious dose (35*, 43*, 44*: suppressed below vehicle 14.5, dose is that of least suppression); for # HTR/20 min at Most Efficacious Dose / Peak HTR/min at Most Efficacious Dose: mean; for Most Efficacious Dose for Peak HTR/min: dose giving highest peak HTR/min (35*, 43*, 44*: dose that resulted in the least suppression); for Most Efficacious Dose for # HTR/20 min: dose giving most HTR/20 min (35*, 43*, 44*: dose that resulted in the least suppression); for Peak HTR/min at Most Efficacious Dose: rate over 2-min bins, at each compound's most efficacious dose (35*, 43*, 44*: suppressed below vehicle 1.62, dose is that of least suppression). On the procedure:
Disclosed compounds were tested for their ability to induce a head twitch response (HTR) in mice using an automated video tracking procedure, with the results summarized in Table 8 and FIG. 4.
Animals. Adult male C57BL/6 mice aged 8-10 weeks (Jackson Labs, Bar Harbor, ME; body weight 18-25 g) were used in this experiment. Animals were group housed under environmentally controlled temperatures and 12-hour light/dark cycles (lights on between 06:00-18:00 h), with ad libitum food and water. Mice were habituated to the facility for at least 5 days prior to testing. All animal procedures were approved by the local IACUC and conducted in accordance with the NIH Guide for the Care and Use of Laboratory Animals.
Procedure. Mice were administered one dose of the drug and immediately placed into a small open field for behavioral observation. High-speed video of animals' behavior was captured continuously for 20 min. Video recordings were imported into an image processing software, which detects multiple points of interest on each animal's body, including the left and right ear. HTR events were defined as periodic deviations of ear locations from temporally averaged ear locations. Predefined thresholds for magnitude and frequency of location deviations were used to filter HTR events from random head movements. The method was validated by comparing detected events with manual (human) observations and found to have an accuracy >95%. The total number of HTR events counted during the 20-min recording and the rate in HTR/min calculated over 2-min bins were determined for each animal at each dose.
Statistical Analysis. The data points shown are the mean±standard error of the mean (SEM).

Test [2] concerns the target T1, 5-HT2C receptor (Homo sapiens, UniProt P28335).
T1 sequence (P28335 33-458): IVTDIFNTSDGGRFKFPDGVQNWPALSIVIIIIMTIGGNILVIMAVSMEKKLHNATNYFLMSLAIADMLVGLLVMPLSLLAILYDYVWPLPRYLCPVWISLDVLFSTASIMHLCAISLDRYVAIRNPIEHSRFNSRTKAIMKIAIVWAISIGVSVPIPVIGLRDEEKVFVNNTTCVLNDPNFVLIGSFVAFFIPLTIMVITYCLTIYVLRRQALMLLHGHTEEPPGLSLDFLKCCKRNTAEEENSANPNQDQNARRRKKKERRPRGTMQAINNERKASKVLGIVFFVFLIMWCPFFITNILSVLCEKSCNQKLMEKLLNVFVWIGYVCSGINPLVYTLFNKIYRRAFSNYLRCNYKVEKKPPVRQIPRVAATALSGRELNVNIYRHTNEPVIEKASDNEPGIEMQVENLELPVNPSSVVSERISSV
Kind of test: Ca2+ flux functional assay at 5-HT2C (WuXi 5-HT2C protocol). In kind it is cell-based. The following applies: for Emax: agonist, tested using WuXi 5-HT2C protocol, max dose, read-out: 5-HT2C % Act @ Max Dose (* WuXi protocol). Also noted: expressed in transfected cells. On the procedure: Disclosed compounds were tested for agonist activity at several serotonin receptor subtypes (5-HT2A, […], 5-HT2C, and 5-HT1A) using Ca^2+ flux functional assays and the 5-HT1B receptor using a cAMP accumulation assay, with the results summarized in Table 4. […] Potent agonist activity was also observed at the other serotonin receptors tested, although the selectivity profile among the receptors varied across compounds. […] However, at the same time, the N-propyl compounds were more efficacious agonists at 5-HT2B than the corresponding N-methyl compounds. The selectivity of disclosed compounds for 5-HT2A over 5-HT2C and 5-HT1A was less predictable and varied widely across compounds. […] An azetidinyl amide substituent tended to increase potency at 5-HT1A relative to 5-HT2A.
Functional Assays at 5-HT2A, 5-HT2B, and 5-HT1A. Agonist activity at 5-HT2A, 5-HT2B, 5HT2C and 5-HT1A receptors was determined using a FLIPR Ca^2+ flux assay at WuXi AppTec (Hong Kong) Limited according to their standard protocols. Briefly, stably transfected cells expressing the receptor of interest and Gα15 in the case of 5-HT1A (HEK293 for 5-HT2A and 5-HT2B; CHO cells for 5-HT1A) were grown and plated in a 384 well plate and incubated at 37° C. and 5% CO2 overnight. A solution of 250 mM probenecid in 1 mL FLIPR assay buffer was prepared fresh. This was combined with a fluorescent dye (Fluo-4 Direct™) to make a final assay concentration of 2.5 mM. Compounds were diluted 1:3.16 for 10 points and 750 nL was added to a 384 well compound plate using ECHO along with 30 μL assay buffer. The fluorescent dye was then added to the assay plate along with assay buffer to a final volume of 40 μL. The cell plate was incubated for 50 min at 37° C. and 5% CO2 and placed into the FLIPR Tetra along with the compound plate. 10 μL of references and compounds were then transferred from the compound plate into the cell plate and the fluorescent signal was read.
For orientation: Calcium flux is commonly read through the fluorescence of an indicator in the cells.

Test [3] deals with 5-HT2A receptor (Homo sapiens, UniProt P28223). Kind of test: biochemical. Type of test: binding. On the set-up: expressed in transfected cells; host or cells: HEK293, stably transfected. Conditions: [3H]ketanserin 1 nM; HEK293 stable cell line; 1 h, 25 °C. The procedure, abridged: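 Test compounds competed with [^3H]ketanserin for receptor binding, and affinity was derived from the radioligand displacement.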
5-HT2A receptor, sequence (P28223 whole entry): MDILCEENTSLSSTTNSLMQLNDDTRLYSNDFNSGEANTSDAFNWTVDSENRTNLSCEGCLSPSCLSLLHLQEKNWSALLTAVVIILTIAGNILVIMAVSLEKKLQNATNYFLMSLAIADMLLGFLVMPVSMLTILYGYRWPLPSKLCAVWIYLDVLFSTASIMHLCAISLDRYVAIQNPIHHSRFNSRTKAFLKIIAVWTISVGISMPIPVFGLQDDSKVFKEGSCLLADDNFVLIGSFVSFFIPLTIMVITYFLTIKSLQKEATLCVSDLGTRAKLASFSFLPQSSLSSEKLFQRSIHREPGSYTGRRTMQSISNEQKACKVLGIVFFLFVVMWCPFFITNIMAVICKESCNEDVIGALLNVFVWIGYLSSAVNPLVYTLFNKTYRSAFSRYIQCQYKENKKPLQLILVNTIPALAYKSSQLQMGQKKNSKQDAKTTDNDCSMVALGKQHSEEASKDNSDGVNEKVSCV

As for `CCN(CC)C(=O)[C@@H]1C=C2c3cccc4[nH]cc(c34)C[C@H]2N(Cc2ccccc2)C1` [Compound 82, (6aR,9R)-7-benzyl-N,N-diethyl-4,6,6a,7,8,9-hexahydroindolo[4,3-fg]quinoline-9-carboxamide], in test [1], the “# HTR/20 min at Most Efficacious Dose” value is reported as 11.25 HTR/20 min; the “Most Efficacious Dose for Peak HTR/min” value was “(0.1) mg/kg, sc”; the “Most Efficacious Dose for # HTR/20 min” value is “(0.1) mg/kg, sc”; the “Peak HTR/min at Most Efficacious Dose” value was 0.56 HTR/min. In test [2], the 50% effective concentration (EC50) was greater than 10000 nM and the Emax was 15.6%. In test [3], affinity was put at a Ki of 1.94 nM.
Turning to `CCN(CC)C(=O)[C@@H]1C=C2c3cccc4[nH]cc(c34)C[C@H]2N(Cc2ccc(OC)cc2)C1` [Compound 19, (6aR,9R)—N,N-diethyl-7-(4-methoxybenzyl)-4,6,6a,7,8,9-hexahydroindolo[4,3-fg]quinoline-9-carboxamide], in test [1], the “# HTR/20 min at Most Efficacious Dose” value was determined as 9.50 HTR/20 min; the “Most Efficacious Dose for Peak HTR/min” value is given as “(1) mg/kg, sc”; the “Most Efficacious Dose for # HTR/20 min” value was “(10) mg/kg, sc”; the “Peak HTR/min at Most Efficacious Dose” value turned out to be 1.31 HTR/min.
For `CCN(CC)C(=O)[C@@H]1C=C2c3cccc4[nH]cc(c34)C[C@H]2N(Cc2ccc(Cl)cc2)C1` [Compound 50, (6aR,9R)-7-(4-chlorobenzyl)-N,N-diethyl-4,6,6a,7,8,9-hexahydroindolo[4,3-fg]quinoline-9-carboxamide], in test [2], the EC50 was greater than 10000 nM and the Emax is 1.08%. The compound further came in with a Ki in test [3] of 4.15 nM.
Take `CCN(CC)C(=O)[C@@H]1C=C2c3cccc4[nH]cc(c34)C[C@H]2N(Cc2cocn2)C1` [Compound 73, (6aR,9R)—N,N-diethyl-7-(oxazol-4-ylmethyl)-4,6,6a,7,8,9-hexahydroindolo[4,3-fg]quinoline-9-carboxamide]: in test [2], the EC50 turned out to be 1720 nM and the Emax was 74%. This compound showed a Ki in test [3] of 8.2 nM.
The like results for `CCN(CC)C(=O)[C@@H]1C=C2c3cccc4[nH]cc(c34)C[C@H]2N(Cc2cccc(O)c2)C1` [Compound 62, (6aR,9R)—N,N-diethyl-7-(3-hydroxybenzyl)-4,6,6a,7,8,9-hexahydroindolo[4,3-fg]quinoline-9-carboxamide] were, in that order, greater than 10000 nM, 20.3% and 6.9 nM.
The matching figures for `CCN(CC)C(=O)[C@@H]1C=C2c3cccc4[nH]cc(c34)C[C@H]2N(Cc2cccc(C#N)c2)C1` [Compound 76, (6aR,9R)—N,N-diethyl-7-(3-cyanobenzyl)-4,6,6a,7,8,9-hexahydroindolo[4,3-fg]quinoline-9-carboxamide]: greater than 10000 nM, 0.14% and 98.5 nM.
As to `CCN(CC)C(=O)[C@@H]1C=C2c3cccc4[nH]cc(c34)C[C@H]2N(Cc2ccon2)C1` [Compound 70, (6aR,9R)—N,N-diethyl-7-(isoxazol-3-ylmethyl)-4,6,6a,7,8,9-hexahydroindolo[4,3-fg]quinoline-9-carboxamide], in test [2], the EC50 was greater than 10000 nM and the Emax came out at 23.9%. Further, affinity in test [3] was put at a Ki of 13.6 nM.
`CC[C@@H](C)NC(=O)[C@@H]1C=C2c3cccc4[nH]cc(c34)C[C@H]2N(C)C1` [Int8]: in test [1], the “# HTR/20 min at Most Efficacious Dose” value is recorded as 23.625 HTR/20 min; the “Most Efficacious Dose for Peak HTR/min” value is given as “(0.32) mg/kg, sc”; the “Most Efficacious Dose for # HTR/20 min” value is “(0.32) mg/kg, sc”; the “Peak HTR/min at Most Efficacious Dose” value came to 2.06 HTR/min.
For the compound `CCN(CC)C(=O)[C@@H]1C=C2c3cccc4[nH]cc(c34)C[C@H]2N(Cc2ccc(F)cc2)C1` [Compound 49, (6aR,9R)—N,N-diethyl-7-(4-fluorobenzyl)-4,6,6a,7,8,9-hexahydroindolo[4,3-fg]quinoline-9-carboxamide], in test [2], the EC50 is greater than 10000 nM and the Emax amounted to 1.32%. The compound further came in with a Ki in test [3] of 1.26 nM.
Consider `CCN(C)C(=O)[C@@H]1C=C2c3cccc4[nH]cc(c34)C[C@H]2N(Cc2ccccc2)C1` [Compound 85, (6aR,9R)-7-benzyl-N-ethyl-N-methyl-4,6,6a,7,8,9-hexahydroindolo[4,3-fg]quinoline-9-carboxamide], for which, in test [1], the “# HTR/20 min at Most Efficacious Dose” value came to 6.625 HTR/20 min; the “Most Efficacious Dose for Peak HTR/min” value was “(0.32) mg/kg, sc”; the “Most Efficacious Dose for # HTR/20 min” value is “(0.32) mg/kg, sc”; the “Peak HTR/min at Most Efficacious Dose” value is 0.33 HTR/min. Moreover, in test [2], the EC50 is greater than 10000 nM and the Emax was determined as 16.3%. In test [3], the Ki is 1.27 nM.
Regarding `C=CCN1C[C@H](C(=O)N[C@H](C)CC)C=C2c3cccc4[nH]cc(c34)C[C@H]21` [Compound 8, (6aR,9R)-7-allyl-N—((R)-sec-butyl)-4,6,6a,7,8,9-hexahydroindolo[4,3-fg]quinoline-9-carboxamide], in test [1], the “# HTR/20 min at Most Efficacious Dose” value is 21.375 HTR/20 min; the “Most Efficacious Dose for Peak HTR/min” value is given as “(3.2) mg/kg, sc”; the “Most Efficacious Dose for # HTR/20 min” value is on record as “(1) mg/kg, sc”; the “Peak HTR/min at Most Efficacious Dose” value amounted to 2.14 HTR/min.
In the case of `CCN(CC)C(=O)[C@@H]1C=C2c3cccc4[nH]cc(c34)C[C@H]2N(Cc2cccc(OC)c2)C1` [Compound 18, (6aR,9R)—N,N-diethyl-7-(3-methoxybenzyl)-4,6,6a,7,8,9-hexahydroindolo[4,3-fg]quinoline-9-carboxamide], in test [1], the “# HTR/20 min at Most Efficacious Dose” value was 7.62 HTR/20 min; the “Most Efficacious Dose for Peak HTR/min” value is “(0.1) mg/kg, sc”; the “Most Efficacious Dose for # HTR/20 min” value is recorded as “(3.2) mg/kg, sc”; the “Peak HTR/min at Most Efficacious Dose” value was 1.12 HTR/min.
